Experimental data: patent publication US7671062B2, “Modulators of chemokine receptor activity, crystalline forms and process” (Bristol-Myers Squibb Company, priority 2006, dated 2010)
Read-outs that look alike come from different tables or passages of the source. Blank lines part the entries; values can stand above or below the molecule they belong to.

Experiments:
[1] = biological target: human cardiac sodium channel SCN5A (Homo sapiens, UniProt Q14524); assay: Sodium channel patch clamp, HEK-293 cells; assay type: cell-based; settings: read-out: Na+ channel patch clamp (% Inhib.)
human cardiac sodium channel SCN5A, sequence (Q14524 whole entry): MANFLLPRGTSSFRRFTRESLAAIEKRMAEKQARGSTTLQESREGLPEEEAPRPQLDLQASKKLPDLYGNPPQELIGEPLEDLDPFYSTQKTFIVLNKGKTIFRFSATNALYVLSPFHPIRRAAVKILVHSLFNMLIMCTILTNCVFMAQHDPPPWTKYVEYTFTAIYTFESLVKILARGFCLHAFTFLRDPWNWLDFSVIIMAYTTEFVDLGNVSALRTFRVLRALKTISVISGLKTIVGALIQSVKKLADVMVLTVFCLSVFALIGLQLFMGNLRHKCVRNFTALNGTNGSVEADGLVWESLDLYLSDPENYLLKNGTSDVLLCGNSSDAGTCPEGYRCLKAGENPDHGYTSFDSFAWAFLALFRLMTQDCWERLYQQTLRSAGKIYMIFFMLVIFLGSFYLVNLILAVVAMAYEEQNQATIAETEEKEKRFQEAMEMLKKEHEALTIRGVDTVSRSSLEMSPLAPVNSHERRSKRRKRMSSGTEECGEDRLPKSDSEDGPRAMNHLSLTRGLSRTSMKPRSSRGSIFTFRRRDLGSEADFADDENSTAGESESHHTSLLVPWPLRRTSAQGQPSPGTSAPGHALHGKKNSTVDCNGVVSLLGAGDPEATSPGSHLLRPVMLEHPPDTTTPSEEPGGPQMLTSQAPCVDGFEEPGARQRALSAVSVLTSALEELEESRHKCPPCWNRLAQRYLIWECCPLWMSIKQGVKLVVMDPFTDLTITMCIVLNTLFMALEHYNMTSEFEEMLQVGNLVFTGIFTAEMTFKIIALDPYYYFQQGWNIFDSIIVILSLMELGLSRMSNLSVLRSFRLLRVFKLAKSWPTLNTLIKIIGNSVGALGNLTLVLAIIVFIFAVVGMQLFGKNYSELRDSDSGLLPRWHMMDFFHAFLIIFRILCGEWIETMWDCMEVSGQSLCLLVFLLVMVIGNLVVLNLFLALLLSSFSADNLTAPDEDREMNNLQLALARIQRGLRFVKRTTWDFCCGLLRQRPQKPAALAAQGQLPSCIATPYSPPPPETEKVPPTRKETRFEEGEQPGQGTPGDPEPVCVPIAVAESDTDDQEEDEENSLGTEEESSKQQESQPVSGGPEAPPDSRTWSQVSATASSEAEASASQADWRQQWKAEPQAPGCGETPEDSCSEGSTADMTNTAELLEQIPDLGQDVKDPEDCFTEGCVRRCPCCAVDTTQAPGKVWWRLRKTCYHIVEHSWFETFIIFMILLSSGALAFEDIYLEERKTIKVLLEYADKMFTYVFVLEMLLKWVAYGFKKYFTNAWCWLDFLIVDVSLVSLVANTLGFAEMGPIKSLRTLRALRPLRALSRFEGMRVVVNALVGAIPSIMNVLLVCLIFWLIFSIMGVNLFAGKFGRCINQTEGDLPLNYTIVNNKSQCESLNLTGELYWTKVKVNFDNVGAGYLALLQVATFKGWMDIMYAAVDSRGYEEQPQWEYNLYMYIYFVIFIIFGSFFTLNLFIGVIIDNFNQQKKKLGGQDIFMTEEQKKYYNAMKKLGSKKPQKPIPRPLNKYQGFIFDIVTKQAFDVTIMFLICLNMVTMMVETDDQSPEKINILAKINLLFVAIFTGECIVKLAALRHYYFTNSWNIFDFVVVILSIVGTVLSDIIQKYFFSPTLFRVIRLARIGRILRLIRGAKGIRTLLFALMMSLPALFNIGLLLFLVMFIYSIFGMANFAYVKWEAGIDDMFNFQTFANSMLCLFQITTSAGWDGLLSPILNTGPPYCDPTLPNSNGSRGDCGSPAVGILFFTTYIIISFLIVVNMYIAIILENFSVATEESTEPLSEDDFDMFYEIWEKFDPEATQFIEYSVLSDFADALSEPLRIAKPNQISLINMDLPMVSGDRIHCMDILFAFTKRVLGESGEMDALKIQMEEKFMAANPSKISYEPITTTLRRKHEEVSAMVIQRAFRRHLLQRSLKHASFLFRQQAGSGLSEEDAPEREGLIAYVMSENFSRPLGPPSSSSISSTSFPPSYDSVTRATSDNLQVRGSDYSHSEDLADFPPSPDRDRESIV
Method: The compound was tested at a protein-free aqueous buffer. For determining steady state inhibition, sodium currents were elicited every 5 seconds using the following voltage protocol: cells were held at a potential of −90 mV and stepped to −20 mV for 60 ms. Effects were calculated by measuring inhibition of peak current during the test pulse to −20 mV. Rate-dependence of inhibition was assessed by stimulation at frequencies of 1 Hz and 4 Hz.

[2] = Intradermal (ID) MCP-1 challenge model in Cynomolgus monkey; assay type: in vivo; parameters: PMN score / Eos score / Total cell score: scale not given here; settings: both sexes, cynomolgus monkey, plasma, read-out: Free plasma conc
Method: (§1) Intradermal injection of MCP-1 results in the infiltration of mononuclear cells to the injection site. This model was initially developed to assess the inhibitory effect of CCR2 antagonists on the infiltration of mononuclear cells to the skin tissue injected with human MCP-1.
(§2) Immediately after dosing on Day 3, all animals received at least 2 intradermal injections of 10 μg (50 μL/injection ) of human MCP-1 (R & D Systems) and at least 2 intradermal injections of its DPBS control (50 μl/injection) at separate sites on the dorsal thorax. Dermal biopsies of all sites were obtained at approximately 18 hours following MCP-1 (or DPBS) challenge. Biopsies were processed for semi-quantitative histological evaluation. Representative sections of skin samples were examined by light microscopy, microscopic lesions and cellular infiltration were noted, and their incidences were tabulated.
(§3) For both studies, in addition to biopsy analysis, blood was collected and evaluated for complete blood counts and cell differentials. Also evaluated were plasma samples for compound concentrations, and serum samples for systemic inflammatory mediator levels.

[3] = tested on: infiltration of mononuclear cells to the skin tissue injected with human MCP-1; assay: as above; assay type: in vivo; parameters: PMN score / Eos score / Total cell score: scale not given here; settings: for inhibition of mononuclear cell infiltration: second study, naive monkeys
Method: as §1, §2, §3

[4] = tested on: monkey PBMC's; assay: In vitro chemotaxis assay with monkey PBMC's; assay type: cell-based, Cynomolgus monkey; settings: Primates, highly variable
Description: (§4) The first employs monkey PBMC's while the second uses L1.2 cells stably transfected with Cyno CCR2.

[5] = biological target: Cyno CCR2 (Macaca fascicularis); assay: In vitro chemotaxis assay with L1.2 cells stably transfected with Cyno CCR2; assay type: cell-based, Cynomolgus monkey
Cyno CCR2 (Macaca fascicularis), sequence (Z9BGH1DMK8 1-374): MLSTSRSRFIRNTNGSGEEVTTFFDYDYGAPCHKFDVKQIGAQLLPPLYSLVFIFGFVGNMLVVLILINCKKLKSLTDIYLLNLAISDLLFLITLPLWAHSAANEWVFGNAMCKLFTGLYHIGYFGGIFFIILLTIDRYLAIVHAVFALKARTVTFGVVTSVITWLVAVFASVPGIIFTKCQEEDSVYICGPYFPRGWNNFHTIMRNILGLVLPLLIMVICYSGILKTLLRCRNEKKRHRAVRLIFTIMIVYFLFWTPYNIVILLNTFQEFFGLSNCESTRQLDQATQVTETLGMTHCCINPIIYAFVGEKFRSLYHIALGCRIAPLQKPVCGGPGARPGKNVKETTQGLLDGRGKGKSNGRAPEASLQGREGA
Description: as §4

[6] = tested on: monocyte/macrophage infiltration into peritoneal cavity; assay: 48-hour thioglycollate (TG)-induced peritonitis model in hCCR2 KI mouse; assay type: in vivo, hCCR2 KI mice; settings: for % inhibition of monocyte/macrophage infiltration: FACS-based analysis of total monocyte/macrophages, 48 h; for EC50: Mus musculus, two separate studies, estimated, read-out: average EC50 for inhibition of monocyte/macrophage infiltration; for inhibition of monocyte/macrophage infiltration: flow cytometry (F4/80, Ly6C)
Method: The hCCR2 KI mice (C57BL/6-SVJ129) were injected intraperitoneally with 1 ml of thioglycollate (TG) (Hardy Diagnostics). For each study, eight male mice per group were used. […] The vehicle used was 0.01 N HCl in water. Forty-eight hours post TG injection, peritoneal lavages were performed by injecting 5 ml PBS/10 mM EDTA/10% BSA into the peritoneal cavity.
Cytospins were performed to determine differential leukocyte counts. The cells were stained for 3 minutes with Wright-Giemsa Stain (Sigma-Aldrich) and then rinsed with deionized water for 5 minutes. Differential counts were calculated based on a total of 200 cells counted per sample.

[7] = tested on: EAE, a model of multiple sclerosis; assay type: in vivo
[8] = biological target: T1, hERG (Homo sapiens, UniProt Q12809); assay: hERG patch clamp, HEK-293 cells; settings: pH 7.4
T1 sequence (Q12809 whole entry): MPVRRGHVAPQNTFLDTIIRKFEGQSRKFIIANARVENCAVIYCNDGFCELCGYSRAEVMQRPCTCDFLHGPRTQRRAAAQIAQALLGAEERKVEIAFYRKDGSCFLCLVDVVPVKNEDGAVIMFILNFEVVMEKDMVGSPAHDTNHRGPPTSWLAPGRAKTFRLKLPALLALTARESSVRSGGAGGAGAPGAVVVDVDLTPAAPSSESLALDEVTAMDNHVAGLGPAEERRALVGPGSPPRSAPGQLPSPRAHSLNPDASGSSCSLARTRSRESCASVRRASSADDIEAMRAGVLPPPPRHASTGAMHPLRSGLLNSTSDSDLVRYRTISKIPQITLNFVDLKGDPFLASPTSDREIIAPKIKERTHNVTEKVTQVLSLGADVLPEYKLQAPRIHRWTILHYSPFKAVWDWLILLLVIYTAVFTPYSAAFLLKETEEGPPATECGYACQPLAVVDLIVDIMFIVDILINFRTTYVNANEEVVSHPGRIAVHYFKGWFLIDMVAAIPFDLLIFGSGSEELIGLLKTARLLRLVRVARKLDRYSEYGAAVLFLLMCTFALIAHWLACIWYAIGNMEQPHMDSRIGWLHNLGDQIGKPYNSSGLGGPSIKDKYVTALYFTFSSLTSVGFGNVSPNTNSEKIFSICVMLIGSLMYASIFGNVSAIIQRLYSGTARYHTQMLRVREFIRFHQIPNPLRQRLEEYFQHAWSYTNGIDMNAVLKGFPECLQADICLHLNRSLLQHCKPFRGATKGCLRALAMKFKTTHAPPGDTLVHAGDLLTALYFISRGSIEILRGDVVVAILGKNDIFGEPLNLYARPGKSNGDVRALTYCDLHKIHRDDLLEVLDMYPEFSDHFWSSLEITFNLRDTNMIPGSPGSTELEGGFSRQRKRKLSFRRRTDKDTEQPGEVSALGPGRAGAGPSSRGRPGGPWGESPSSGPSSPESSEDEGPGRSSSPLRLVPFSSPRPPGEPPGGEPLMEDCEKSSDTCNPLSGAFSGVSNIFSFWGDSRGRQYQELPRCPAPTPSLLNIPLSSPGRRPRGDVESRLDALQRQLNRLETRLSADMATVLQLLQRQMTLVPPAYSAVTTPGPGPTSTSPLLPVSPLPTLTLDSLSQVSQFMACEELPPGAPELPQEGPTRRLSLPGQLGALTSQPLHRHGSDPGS

[9] = Single-dose pharmacokinetics in rats; settings: rat
[10] = Single-dose pharmacokinetics in monkeys; settings: male, Cynomolgus, cynomolgus monkey
[11] = biological target: T1, hERG; assay: hERG flux (Tl+ flux, FLIPR) in HEK293 cells; assay type: cell-based; parameters: expressed in transfected cells; host or cells: HEK293
[12] = Parallel Artificial Membrane Permeability Assay (PAMPA); settings: mean ± SD (n in parentheses)
[13] = biological target: T2, CCR2 (Homo sapiens, UniProt P41597); assay: In vivo receptor occupancy in blood of hCCR2 KI mice, 48-hour TG peritonitis model (Gaddum equation); settings: for Concentration of Mouse MCP-1 in plasma / Concentration of free Example 1 in plasma: 48-hour TG peritonitis; for % free CCR2 / % mouse MCP-1 bound CCR2 / % of Example 1-bound CCR2: Gaddum equation
T2 sequence (P41597 whole entry): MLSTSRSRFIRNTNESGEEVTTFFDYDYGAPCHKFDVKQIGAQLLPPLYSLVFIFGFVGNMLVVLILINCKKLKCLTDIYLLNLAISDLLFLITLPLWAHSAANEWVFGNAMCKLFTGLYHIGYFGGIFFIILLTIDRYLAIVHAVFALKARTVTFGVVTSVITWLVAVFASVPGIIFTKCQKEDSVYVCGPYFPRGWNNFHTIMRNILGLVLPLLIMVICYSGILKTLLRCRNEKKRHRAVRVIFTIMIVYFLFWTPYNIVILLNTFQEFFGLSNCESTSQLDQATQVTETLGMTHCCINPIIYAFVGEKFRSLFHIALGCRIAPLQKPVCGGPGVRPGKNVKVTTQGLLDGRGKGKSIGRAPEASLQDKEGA

[14] = Moisture-sorption isotherm; assay type: physicochemical; settings: ca. 25% to ca. 75% RH at 25° C.
Method: A sample of the oily, gel-like (amorphous) free base of N-((1R,2S,5R)-5-(isopropyl(methyl)amino)-2-((S)-2-oxo-3-(6-(trifluoromethyl)quinazolin-4-ylamino)pyrrolidin-1-yl)cyclohexyl)acetamide (approx 0.5 g), extracted from a sample of the BSA salt, was suspended in heptane (approx 5 mL). The flask was scratched with a metal spatula, and the suspension was stirred vigorously by a magnetic stir bar at 25° C. A white slurry of crystalline particles was obtained after 24 hours of stirring. The slurry was filtered and the wet cake dried in vacuo (40° C.) to provide the pure N-2 form (confirmed by PXRD) of the free base. Form N-2 was characterized by an XRD pattern which matches the simulated pattern generated from the single crystal structure data. Form N-2 is the neat (no solvate molecules or no molecules of water or solvent) form of N-((1R,2S,5R)-5-(isopropyl(methyl)amino)-2-((S)-2-oxo-3-(6-(trifluoromethyl)quinazolin-4-ylamino)pyrrolidin-1-yl)cyclohexyl)acetamide, free base. Form N-2, was characterized by a DSC thermogram having a melt endotherm onset typically at ca. 158° C. to ca. 162° C. Form N-2 was characterized by a TGA thermal curve having a negligible weight loss at up to ca. 145° C. which agreed with the single crystal structure data. The weight loss corresponded to adventitious solvent.

[15] = biological target: T2, CCR2; assay: Cold competition ligand binding to hCCR2 using 125I-human MCP-1; settings: 125I-human MCP-1, n=8

Molecule: CC(=O)N[C@@H]1C[C@H](N(C)C(C)C)CC[C@@H]1N1CC[C@H](Nc2ncnc3ccc(C(F)(F)F)cc23)C1=O [Example 1, N-((1R,2S,5R)-5-(isopropyl(methyl)amino)-2-((S)-2-oxo-3-(6-(trifluoromethyl)quinazolin-4-ylamino)pyrrolidin-1-yl)cyclohexyl)acetamide]
- inhibition at 10000 nM ([1]; HEK-293 cells expressing human cardiac sodium channel SCN5A, 10,000 nM): 17%
- inhibition at 30000 nM ([1]; HEK-293 cells expressing human cardiac sodium channel SCN5A, 30,000 nM): 19%
- concentration at 18 h ([2]; 6.5 mg/kg once daily for 3 days, Study 1, 6.5 mg/kg oral once daily 3 days, 18 hours): 53 nM
- concentration at 18 h ([2]; 13 mg/kg once daily for 3 days, Study 1, 13 mg/kg oral once daily 3 days, 18 hours): 101 nM
- concentration at 18 h ([2]; 26 mg/kg once daily for 3 days, Study 1, 26 mg/kg oral once daily 3 days, 18 hours): 238 nM
- concentration at 18 h ([2]; Study 2 (naive monkeys), 10 mg/kg oral once daily 3 days): 34 nM
- concentration at 18 h ([2]; Study 2 (naive monkeys), 30 mg/kg oral once daily 3 days): 83 nM
- Eos score ([3]; Study 1, 6.5 mg/kg): 1.3 ± 0.8
- MNC score (inh %) ([3]; Study 1, 6.5 mg/kg): (19%)
- PMN score ([3]; Study 1, 6.5 mg/kg): 0.8 ± 0.3
- Total cell score ([3]; Study 1, 6.5 mg/kg): 4.3 ± 1.6
- MNC score ([3]; Study 1, 6.5 mg/kg, scale of 0 to 4): 2.2 ± 0.6
- Eos score ([3]; Study 1, 13 mg/kg): 1.2 ± 0.6
- MNC score (inh %) ([3]; Study 1, 13 mg/kg): (19%)
- PMN score ([3]; Study 1, 13 mg/kg): 0.7 ± 0.3
- Total cell score ([3]; Study 1, 13 mg/kg): 4.0 ± 0.5
- MNC score ([3]; Study 1, 13 mg/kg, scale of 0 to 4): 2.2 ± 0.3
- Eos score ([3]; Study 1, 26 mg/kg): 0.5 ± 0^
- MNC score (inh %) ([3]; Study 1, 26 mg/kg): (56%)
- PMN score ([3]; Study 1, 26 mg/kg): 0.2 ± 0.3
- Total cell score ([3]; Study 1, 26 mg/kg): 1.8 ± 0.8
- MNC score ([3]; Study 1, 26 mg/kg, scale of 0 to 4): 1.2 ± 0.6
- Eos score ([3]; Study 2, 10 mg/kg): 0.3 ± 0.1
- MNC score ([3]; Study 2, 10 mg/kg): 0.2 ± 0.2
- MNC score (inh %) ([3]; Study 2, 10 mg/kg): (87%)
- PMN score ([3]; Study 2, 10 mg/kg): 0
- Total cell score ([3]; Study 2, 10 mg/kg): 0.5 ± 0.2
- Eos score ([3]; Study 2, 30 mg/kg): 0.6 ± 0.7
- MNC score ([3]; Study 2, 30 mg/kg): 0.1 ± 0.3
- MNC score (inh %) ([3]; Study 2, 30 mg/kg): (91%)
- PMN score ([3]; Study 2, 30 mg/kg): 0.1 ± 0.3
- Total cell score ([3]; Study 2, 30 mg/kg): 0.8 ± 0.8
- infiltration of other cells types such as eosinophils and neutrophils ([3]; first study): inhibited the infiltration
- inhibition of MCP-1 induced infiltration of mononuclear cells to the skin ([3]; first study, 26 mg/kg oral once daily for three days, biopsy 18 hours after MCP-1): 56%
- inhibition of MCP-1 induced infiltration of mononuclear cells to the skin ([3]; first study, 13 and 6.5 mg/kg): lower levels of inhibition
- inhibition of mononuclear cell infiltration ([3]; 10 mg/kg): 87%
- inhibition of mononuclear cell infiltration ([3]; 30 mg/kg): 91%
- IC50 [4]: 5.5 ± 10 nM
- IC50 [5]: 11.4 ± 8 nM
- % inhibition of monocyte/macrophage infiltration ([6]; 1 mg/kg): 38%
- % inhibition of monocyte/macrophage infiltration ([6]; 5 mg/kg): 71%
- % inhibition of monocyte/macrophage infiltration ([6]; 25 mg/kg): 86%
- number of total peritoneal leukocytes obtained by cell counter ([6]; 1, 5, or 25 mg/kg BID oral, 48 hours post TG): dose-dependent reduction
- EC50 ([6]; differential leukocyte counts): 3 ± 0.9 nM
- EC50 ([6]; flow cytometry): 2.2 ± 0.5 nM
- inhibition of monocyte/macrophage influx ([6]; differential leukocyte counts, 1 mg/kg BID): 20%
- inhibition of monocyte/macrophage influx ([6]; differential leukocyte counts, 5 mg/kg BID): 62%
- inhibition of monocyte/macrophage influx ([6]; differential leukocyte counts, 25 mg/kg BID): 69%
- inhibition of monocyte/macrophage infiltration ([6]; 1 mg/kg BID): 38%
- inhibition of monocyte/macrophage infiltration ([6]; 5 mg/kg BID): 71%
- inhibition of monocyte/macrophage infiltration ([6]; 25 mg/kg BID): 86%
- clinical score ([7]; 55 mg/kg BID oral from day 1, two of the three studies, p<0.05): significantly reduced the clinical score
- total inflammatory cellular infiltrate, histological evaluation of the spinal cord ([7]; Day 22, versus vehicle): did not demonstrate a significant difference
- inhibition at 10000 nM [8]: 33%
- inhibition at 30000 nM [8]: 61%
- AUC ([9]; male, Sprague-Dawley, plasma, po, 10 mg/kg): 3.79 µM·h
- Cl ([9]; IV, dose IV/PO mg/kg: 2k 2.5/25, 8a 6/72, 9c 4/43, Example 1 2/10): 43 mL/min/kg
- F % ([9]; dose IV/PO mg/kg: 2k 2.5/25, 8a 6/72, 9c 4/43, Example 1 2/10): 51%
- bioavailability ([10]; in vivo, po, 1.3 mg/kg): 47%
- clearance ([10]; plasma, iv, 1 mg/kg): 23 mL/min/kg
- AUC ([10]; plasma, po, 1.3 mg/kg): 0.836 µM·h
- IC50 [11]: > 80 µM
- PAMPA permeability [12]: 443 ± 114 (8) nm/sec
- Concentration of Mouse MCP-1 in plasma ([13]; 1 mg/kg oral BID): 0.027 nM
- Concentration of free Example 1 in plasma ([13]; 1 mg/kg oral BID): 1 nM
- % free CCR2 ([13]; 1 mg/kg): 53.7%
- % mouse MCP-1 bound CCR2 ([13]; 1 mg/kg): 1.6%
- % of Example 1-bound CCR2 ([13]; 1 mg/kg): 44.7%
- Concentration of Mouse MCP-1 in plasma ([13]; 5 mg/kg oral BID): 0.043 nM
- Concentration of free Example 1 in plasma ([13]; 5 mg/kg oral BID): 4 nM
- % free CCR2 ([13]; 5 mg/kg): 22.8%
- % mouse MCP-1 bound CCR2 ([13]; 5 mg/kg): 1.1%
- % of Example 1-bound CCR2 ([13]; 5 mg/kg): 76.1%
- Concentration of Mouse MCP-1 in plasma ([13]; 25 mg/kg oral BID): 0.041 nM
- Concentration of free Example 1 in plasma ([13]; 25 mg/kg oral BID): 24 nM
- % free CCR2 ([13]; 25 mg/kg): 4.8%
- % mouse MCP-1 bound CCR2 ([13]; 25 mg/kg): 0.2%
- % of Example 1-bound CCR2 ([13]; 25 mg/kg): 95.0%

Molecule: CC(=O)N[C@@H]1C[C@H](N(C)C(C)C)CC[C@@H]1N1CC[C@H](Nc2ncnc3ccc(C(F)(F)F)cc23)C1=O [Form N-2, N-((1R,2S,5R)-5-(isopropyl(methyl)amino)-2-((S)-2-oxo-3-(6-(trifluoromethyl)quinazolin-4-ylamino)pyrrolidin-1-yl)cyclohexyl)acetamide]
- moisture-sorption isotherm weight gain [14]: 0.15%

- Kd [15]: 0.91 nM
Molecule: mouse MCP-1: mouse CCR2 ligand MCP-1 (chemokine)
